Data set [1] addresses Phosphodiesterase 4 enzyme. In words: Inhibition of PDE4. Type of data set: biochemical. The settings on record: PDE4 purified from U937 human monocytic cells; 1 μM cAMP, 45 min at 30° C. How it is done: Phosphodiesterase 4 enzyme was purified from U937 human monocytic cells by gel filtration chromatography, and phosphodiesterase reactions were carried out as previously described. See, e.g., Muller et al., Bioorg. Med. Chem. Lett., 1998, 8(19): 2669-2674. Briefly, reactions were carried out in 96-well deep-well plates in 50 mM Tris HCl pH 7.5, 5 mM MgCl2, 1 μM cyclic adenosine monophosphate (cAMP), plus 10 nM [^3H]-cAMP for 45 min at 30° C. The reactions were terminated by boiling, treated with 1 mg/ml snake venom, and separated using AG-1X8 ion exchange resin (BioRad). Reactions consumed less than 15% of available substrate.

Another data set relates to TNF-α. The data set is described as follows: In vivo LPS-induced TNF-α production assay. The settings on record: Rattus norvegicus, 1.5 h; p.o.; male CD rats, 0.05 mg/kg LPS, blood 90 minutes after LPS challenge; read-out: ED50, TNF-α levels in rat plasma. The method, then: Male CD rats procured from Charles River Laboratories at seven weeks of age are allowed to acclimate for one week prior to use. A lateral tail vein is cannulated percutaneously with a 22-gage over-the-needle catheter under brief isoflurane anesthesia. Rats are administered a PDE4 inhibitor of the invention either by intravenous injection via the tail vein catheter or oral gavage 15 to 180 min prior to injection of 0.05 mg/kg LPS (E. Coli 055:B5). Catheters are flushed with 2.5 mL/kg of normal injectable saline. Blood is collected via cardiac puncture 90 minutes after LPS challenge. Plasma is prepared using lithium heparin separation tubes and frozen at −80° C. until analyzed. TNF-α levels are determined using a rat specific TNF-α ELISA kit (Busywork). The ED50 values are calculated as the dose of the PDE4 inhibitor of the invention at which the TNF-α production is reduced to 50% of the control value.

The nature of a further data set: Aqueous solubility. Type of data set: physicochemical. To be noted: water (aqueous). How it is done: Thus, there exists a need for alternative formulations of Compound A in order to increase the bioavailability of the drug upon oral administration. Provided herein are oral dosage forms addressing this need.
The above method results in a physically stable solid dispersion of Compound A having an aqueous solubility of about 2 μg/mL.

The source of these data is patent publication US9757355B2, “Oral dosage forms of cyclopropanecarboxylic acid {2-[(1S)-1-(3-ethoxy-4-methoxy-phenyl)-2-methanesulfonyl-ethyl]-3-oxo-2,3-dihydro-1H-isoindol-4-yl}-amide” (Celgene Corporation, priority 2011, dated 2017).

Values after ≈ are worked out from the molar mass of the structure shown.

One may read the IC50 as the concentration that gives 50% inhibition. A high value points to weaker potency. A word on the ED50: it is the midpoint of the dose-response relation. A word on the solubility: it is the dissolved amount per volume that the medium holds. In the case of `CCOc1cc([C@@H](CS(C)(=O)=O)N2Cc3cccc(NC(=O)C4CC4)c3C2=O)ccc1OC` [Compound A, Cyclopropanecarboxylic acid {2-[(1S)-1-(3-ethoxy-4-methoxy-phenyl)-2-methanesulfonyl-ethyl]-3-oxo-2,3-dihydro-1H-isoindol-4-yl}-amide], the half-inhibitory concentration (IC50) in data set [1] was 105 nM. In the data set on TNF-α, the ED50 was roughly 7.8 µg/kg. In “Aqueous solubility”, this compound had a solubility of roughly 2 µg/mL (≈ 4.23 µM).
